Assay results taken from PubChem BioAssay AID248 (DTP/NCI, 2004).
Values joined by “and” are separate entries in the source; they are usually repeats but may differ in a detail not shown here. Equal entries are not always repeated. Inconclusive results and toxic doses are left out. No stated cut-off is given here; in the data, active means T/C of 150% or more; inactive means T/C below 125%.

System: L1210 leukemia ip in BDF1 mice, survival T/C
Experiment: NCI In Vivo Anticancer Drug Screen. Data for tumor model L1210 Leukemia (intraperitoneal) in B6D2F1 (BDF1) mice
Conditions: endpoint: mean survival time, higher = longer survival
Summary of the method: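 Survival endpoint. Drug-treated group vs vehicle group, expressed as T divided by C. Tumor passaged by transplantation.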

[1] = dose: 100.0 mg/kg/injection, schedule: Q01DX009 (ip), vehicle: Klucel (hydroxypropylcellulose) (HPC)
[2] = dose: 100.0 mg/kg/injection, schedule: Q04DX003 (ip), vehicle: Klucel (hydroxypropylcellulose) (HPC)
[3] = dose: 200.0 mg/kg/injection, schedule: Q01DX009 (ip), vehicle: Klucel (hydroxypropylcellulose) (HPC)
[4] = dose: 200.0 mg/kg/injection, schedule: Q04DX003 (ip), vehicle: Klucel (hydroxypropylcellulose) (HPC)
[5] = dose: 400.0 mg/kg/injection, schedule: Q04DX003 (ip), vehicle: Klucel (hydroxypropylcellulose) (HPC)

Measured: T/C

COC(=O)/C(C)=N\N=C(N)N
inactive: dose: 15.0 mg/kg/injection, schedule: Q01DX Z (ip), vehicle: carboxymethylcellulose (CMC) 104 % of control | dose: 30.0 mg/kg/injection, schedule: Q01DX Z (ip), vehicle: carboxymethylcellulose (CMC) 92 % of control | dose: 60.0 mg/kg/injection, schedule: Q01DX Z (ip), vehicle: carboxymethylcellulose (CMC) 103 % of control | dose: 120.0 mg/kg/injection, schedule: Q01DX Z (ip), vehicle: carboxymethylcellulose (CMC) 97 % of control | dose: 240.0 mg/kg/injection, schedule: Q01DX Z (oral), vehicle: carboxymethylcellulose (CMC) 100 % of control | dose: 480.0 mg/kg/injection, schedule: Q01DX Z (oral), vehicle: carboxymethylcellulose (CMC) 96 % of control | dose: 960.0 mg/kg/injection, schedule: Q01DX Z (oral), vehicle: carboxymethylcellulose (CMC) 100 % of control | dose: 1920.0 mg/kg/injection, schedule: Q01DX Z (oral), vehicle: carboxymethylcellulose (CMC) 98 % of control

CC1OC(n2ncc(=O)[nH]c2=O)C2OC(C)(C)OC2C1=O (stereo not given)
inactive: dose: 12.5 mg/kg/injection, schedule: Q01DX005 (ip), vehicle: distilled water + Tween-80 108 % of control | dose: 25.0 mg/kg/injection, schedule: Q01DX005 (ip), vehicle: distilled water + Tween-80 95 % of control | dose: 50.0 mg/kg/injection, schedule: Q01DX005 (ip), vehicle: distilled water + Tween-80 92 % of control | dose: 100.0 mg/kg/injection, schedule: Q01DX005 (ip), vehicle: distilled water + Tween-80 95 % of control | dose: 200.0 mg/kg/injection, schedule: Q01DX005 (ip), vehicle: distilled water + Tween-80 97 % of control

O=C(c1ccc(O)cc1O)c1cccc2ccccc12
inactive: [1] 95 % of control | [2] 93 % of control | [3] 97 % of control | [4] 95 % of control | dose: 400.0 mg/kg/injection, schedule: Q01DX009 (ip), vehicle: Klucel (hydroxypropylcellulose) (HPC) 99 % of control | [5] 93 % of control

CCOC(=O)C(=N\Nc1cccc(C)c1C)/C(C)=N\NC(N)=S
inactive: dose: 75.0 mg/kg/injection, schedule: Q01DX001 (ip), vehicle: saline 94 % of control | dose: 150.0 mg/kg/injection, schedule: Q01DX001 (ip), vehicle: saline 97 % of control | dose: 300.0 mg/kg/injection, schedule: Q01DX001 (ip), vehicle: saline 97 % of control

c1ccc2c(c1)cc1ccc3cccc4ncc2c1c34
inactive: dose: 100.0 mg/kg/injection, schedule: Q04DX003 (ip), vehicle: saline with Tween-80 86 % of control | dose: 200.0 mg/kg/injection, schedule: Q04DX003 (ip), vehicle: saline with Tween-80 96 % of control | dose: 400.0 mg/kg/injection, schedule: Q04DX003 (ip), vehicle: saline with Tween-80 88 % of control

COc1cc(N(CCCl)CCCl)ccc1/C=N/Nc1nncn1N
inactive: dose: 50.0 mg/kg/injection, schedule: Q01DX001 (ip), vehicle: carboxymethylcellulose (CMC) 101 % of control | dose: 100.0 mg/kg/injection, schedule: Q01DX001 (ip), vehicle: carboxymethylcellulose (CMC) 98 % of control | dose: 200.0 mg/kg/injection, schedule: Q01DX001 (ip), vehicle: carboxymethylcellulose (CMC) 110 % of control | dose: 400.0 mg/kg/injection, schedule: Q01DX001 (ip), vehicle: carboxymethylcellulose (CMC) 104 % of control

Cc1cc(-c2nnc(-c3ccc(O)c(C)c3)nn2)ccc1O
inactive: dose: 100.0 mg/kg/injection, schedule: Q01DX009 (ip), vehicle: saline with Tween-80 94 % of control | dose: 200.0 mg/kg/injection, schedule: Q01DX009 (ip), vehicle: saline with Tween-80 94 % of control | dose: 400.0 mg/kg/injection, schedule: Q01DX009 (ip), vehicle: saline with Tween-80 91 % of control

CN1CCN(CCCN2c3ccccc3Sc3ccc(C(F)(F)F)cc32)CC1
inactive: dose: 3.12 mg/kg/injection, schedule: Q01DX009 (ip), vehicle: saline 93 % of control | dose: 6.25 mg/kg/injection, schedule: Q01DX009 (ip), vehicle: saline 98 % of control and 104 % of control and 118 % of control | dose: 9.0 mg/kg/injection, schedule: Q04DX003 (ip), vehicle: saline with Tween-80 112 % of control | dose: 9.3 mg/kg/injection, schedule: Q01DX009 (ip), vehicle: saline 101 % of control | dose: 10.0 mg/kg/injection, schedule: Q01DX009 (ip), vehicle: saline with Tween-80 106 % of control | dose: 12.5 mg/kg/injection, schedule: Q01DX009 (ip), vehicle: saline 113 % of control and 106 % of control | dose: 12.5 mg/kg/injection, schedule: Q04DX003 (ip), vehicle: saline 102 % of control | dose: 15.0 mg/kg/injection, schedule: Q01DX009 (ip), vehicle: saline with Tween-80 101 % of control | dose: 18.0 mg/kg/injection, schedule: Q01DX001 (ip), vehicle: saline with Tween-80 104 % of control | dose: 18.0 mg/kg/injection, schedule: Q04DX003 (ip), vehicle: saline with Tween-80 117 % of control | dose: 18.7 mg/kg/injection, schedule: Q01DX009 (ip), vehicle: saline 114 % of control | dose: 18.75 mg/kg/injection, schedule: Q04DX003 (ip), vehicle: saline 106 % of control | dose: 20.0 mg/kg/injection, schedule: Q04DX003 (ip), vehicle: saline with Tween-80 111 % of control | dose: 22.0 mg/kg/injection, schedule: Q01DX009 (ip), vehicle: saline with Tween-80 118 % of control | dose: 25.0 mg/kg/injection, schedule: Q01DX009 (ip), vehicle: acetone 107 % of control | dose: 25.0 mg/kg/injection, schedule: Q01DX009 (ip), vehicle: saline with Tween-80 108 % of control | dose: 25.0 mg/kg/injection, schedule: Q01DX009 (ip), vehicle: saline 102 % of control and 109 % of control | dose: 25.0 mg/kg/injection, schedule: Q04DX003 (ip), vehicle: acetone 100 % of control | dose: 25.0 mg/kg/injection, schedule: Q04DX003 (ip), vehicle: saline 103 % of control [middle of 4 runs] | dose: 30.0 mg/kg/injection, schedule: Q04DX003 (ip), vehicle: saline with Tween-80 119 % of control | dose: 33.0 mg/kg/injection, schedule: Q01DX009 (ip), vehicle: saline with Tween-80 123 % of control | dose: 37.0 mg/kg/injection, schedule: Q01DX001 (ip), vehicle: saline with Tween-80 104 % of control | dose: 37.5 mg/kg/injection, schedule: Q04DX003 (ip), vehicle: saline 96 % of control | dose: 44.0 mg/kg/injection, schedule: Q04DX003 (ip), vehicle: saline with Tween-80 116 % of control | dose: 50.0 mg/kg/injection, schedule: Q01DX009 (ip), vehicle: acetone 120 % of control | dose: 50.0 mg/kg/injection, schedule: Q04DX003 (ip), vehicle: acetone 100 % of control | dose: 50.0 mg/kg/injection, schedule: Q04DX003 (ip), vehicle: saline 111 % of control [middle of 4 runs] | dose: 66.0 mg/kg/injection, schedule: Q04DX003 (ip), vehicle: saline with Tween-80 108 % of control | dose: 75.0 mg/kg/injection, schedule: Q01DX001 (ip), vehicle: saline with Tween-80 113 % of control | dose: 75.0 mg/kg/injection, schedule: Q04DX003 (ip), vehicle: saline with Tween-80 119 % of control | dose: 75.0 mg/kg/injection, schedule: Q04DX003 (ip), vehicle: saline 102 % of control | dose: 100.0 mg/kg/injection, schedule: Q01DX001 (ip), vehicle: saline 101 % of control | dose: 100.0 mg/kg/injection, schedule: Q01DX009 (ip), vehicle: acetone 113 % of control | dose: 100.0 mg/kg/injection, schedule: Q04DX003 (ip), vehicle: acetone 121 % of control | dose: 100.0 mg/kg/injection, schedule: Q04DX003 (ip), vehicle: saline 99 % of control and 112 % of control | dose: 150.0 mg/kg/injection, schedule: Q01DX001 (ip), vehicle: saline with Tween-80 90 % of control

CC(C)(C)OC(=O)CCC(NC(=O)OCc1ccccc1)C(=O)NN (stereo not given)
inactive: dose: 50.0 mg/kg/injection, schedule: Q01DX009 (ip), vehicle: Klucel (hydroxypropylcellulose) (HPC) 100 % of control | dose: 75.0 mg/kg/injection, schedule: Q01DX001 (ip), vehicle: Klucel (hydroxypropylcellulose) (HPC) 88 % of control | [1] 110 % of control | [2] 99 % of control | dose: 150.0 mg/kg/injection, schedule: Q01DX001 (ip), vehicle: Klucel (hydroxypropylcellulose) (HPC) 108 % of control | [3] 100 % of control | [4] 106 % of control | dose: 300.0 mg/kg/injection, schedule: Q01DX001 (ip), vehicle: Klucel (hydroxypropylcellulose) (HPC) 92 % of control | [5] 105 % of control

NC(CSS(=O)(=O)O)=NCCCc1nc2ccccc2[nH]1
inactive: dose: 100.0 mg/kg/injection, schedule: Q04DX002 (ip), vehicle: Klucel (hydroxypropylcellulose) (HPC) 106 % of control | dose: 200.0 mg/kg/injection, schedule: Q04DX002 (ip), vehicle: Klucel (hydroxypropylcellulose) (HPC) 92 % of control | dose: 400.0 mg/kg/injection, schedule: Q04DX002 (ip), vehicle: Klucel (hydroxypropylcellulose) (HPC) 95 % of control
